Results as given in patent US20220125837A1, “METHODS FOR CONTROLLED ELIMINATION OF THERAPEUTIC CELLS” (Bellicum Pharmaceuticals, Inc., priority 2014, published 2022).

Columns and labels:
[1] = tested on: iCasp9M-transduced EBV-CTLs; experiment: CID-induced elimination of GFP+ iCasp9M-transduced EBV-CTLs (flow cytometry); assay type: cell-based, human
[2] = tested on: iCasp9-ΔCD19-transduced MSCs; experiment: In vivo killing of iCasp9 MSCs in SCID mice (luminescence, qPCR)
Protocol: All mouse experiments were performed in accordance with the Baylor College of Medicine animal husbandry guidelines. To assess the persistence of modified MSCs in vivo, a SCID mouse model was used in conjunction with an in vivo imaging system. MSCs were transduced with retroviruses coding for the enhanced green fluorescent protein-firefly luciferase (eGFP-FFLuc) gene alone or together with the iCasp9-ΔCD19 gene. Cells were sorted for eGFP positivity by fluorescence activated cell sorting using a MoFlo flow cytometer (Beckman Coulter, Fullerton, Calif.). Doubly transduced cells were also stained with PE-conjugated anti-CD19 and sorted for PE-positivity. SCID mice (8-10 weeks old) were injected subcutaneously with 5×10^5 MSCs with and without iCasp9-ΔCD19 in opposite flanks. […] For in vivo imaging of MSCs expressing eGFP-FFLuc, mice were injected intraperitoneally with D-luciferin (150 mg/kg) and analyzed using the Xenogen-IVIS Imaging System. Total luminescence (a measurement proportional to the total labeled MSCs deposited) at each time point was calculated by automatically defining regions-of-interest (ROIs) over the MSC implantation sites. These ROIs included all areas with luminescence signals at least 5% above background. Total photon counts were integrated for each ROI and an average value calculated. […]

[3] = tested on: differentiated iCasp9-positive MSCs; experiment: Apoptosis of differentiated iCasp9 MSCs after CID (TUNEL, cell density); details: adipocytic differentiation; 50 nM CID; 24 hours; from 584

CC[C@H](C(=O)N1CCCC[C@H]1C(=O)O[C@H](CCc1ccc(OC)c(OC)c1)c1cccc(OCC(=O)NCC(CNC(=O)COc2cccc([C@@H](CCc3ccc(OC)c(OC)c3)OC(=O)[C@@H]3CCCCN3C(=O)[C@@H](CC)c3cc(OC)c(OC)c(OC)c3)c2)CN(C)C)c1)c1cc(OC)c(OC)c(OC)c1 [AP20187]
reduction in mean fluorescence intensity of GFP after CID ([1]; CTLs that survived CID treatment): 70% | CID sufficient to obtain the maximal deletion effect ([1]; F-Casp9M.I.GFPhigh, survival of GFP+ cells on day 7): 1 nM | Elimination of GFP+ cells ([1]; iCasp9M-transduced CTLs, GFPhigh, 1:1 with nontransduced, 10 nM CID, day 7): 99.2%+/−0.14% | GFP+ cells eliminated ([1]; single 10-nM dose of CID, unselected iCasp9M CTLs, 5 donors): 91.3% | surviving iCasp9-positive cells, % of the original population ([2]; after one week): 0.7% | killing / depletion of iCasp9-positive cells in vivo ([2]; two injections of 50 μg of CID 24 hours apart, qPCR): > 99% | cell density after CID [3]: < 14 cells/mm2
